Test results from patent publication US20250034132A1, “PROLYL HYDROXYLASE DOMAIN-CONTAINING PROTEIN (PHD) INHIBITORS AND USES THEREOF” (Insilico Medicine IP Limited, priority 2021, published 2025).

Target: PHD2 (Homo sapiens, UniProt Q9GZT9)
Test: PHD2 enzymatic assay (AlphaScreen)
Format: biochemical
Settings: IC50 from % inhibition

Chain of PHD2 (Q9GZT9 whole entry): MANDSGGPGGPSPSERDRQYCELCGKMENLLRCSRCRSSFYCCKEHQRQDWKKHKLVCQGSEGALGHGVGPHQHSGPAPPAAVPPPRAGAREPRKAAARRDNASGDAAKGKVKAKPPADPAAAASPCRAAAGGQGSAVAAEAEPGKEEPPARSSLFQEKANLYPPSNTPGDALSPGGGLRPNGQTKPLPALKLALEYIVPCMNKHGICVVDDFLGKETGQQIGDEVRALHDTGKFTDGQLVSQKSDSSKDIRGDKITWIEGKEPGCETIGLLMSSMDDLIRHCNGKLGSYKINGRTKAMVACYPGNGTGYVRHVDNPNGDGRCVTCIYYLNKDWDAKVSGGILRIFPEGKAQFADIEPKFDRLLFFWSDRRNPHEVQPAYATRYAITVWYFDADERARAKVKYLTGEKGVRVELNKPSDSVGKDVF

IC50: < 5 nM
SMILES: N#Cc1ccc(CNC(=O)c2ncc3nc(N4CC(N)C4)ccc3c2O)cn1 [Example 132]
